Values quoted from earlier work in US20260334526A1 (NICOVENTURES TRADING LIMITED, priority 2022, published 2026).

How the values were obtained:
[1] = nicotine solution at pH=6 relative to pH 8.1; perfusion cell; Adrian et al.
[2] = for solubility: fats, alcohols, water

SMILES	reduction of diffusion rate across human buccal tissue (factor) [1]	solubility [2]	chemical stability ([2]; when isolated)
CN1CCCC1c1cccnc1 (stereo not shown) [nicotine]	~ 7		
COC(=O)/C=C/C(C)=C\C=C\C(C)=C\C=C\C=C(C)\C=C\C=C(C)\C=C\C(=O)O [bixin, (2E,4E,6E,8E,10E,12E,14E,16Z,18E)-20-methoxy-4,8,13,17-tetramethyl-20-oxoicosa-2,4,6,8,10,12,14,16,18-nonaenoic acid]		soluble in fats and alcohols but insoluble in water	chemically unstable when isolated
CC(/C=C/C=C(C)/C=C/C(=O)O)=C\C=C\C=C(C)\C=C\C=C(C)\C=C\C(=O)O (stereo in doubt) [norbixin, (2E,4E,6E,8E,10E,12E,14E,16E,18E)-4,8,13,17-tetramethylicosa-2,4,6,8,10,12,14,16,18-nonaenedioic acid]		water-soluble	
